The record followed here is PubChem BioAssay (NCI).

SMILES strings stand for the structures. Values joined by “and” are separate entries in the source; they are usually repeats but may differ in a detail not shown here. Equal values may be shown once.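 Grown in 96-well plates, cells were treated for 48 hours with each compound at five concentrations. Insufficient inhibition: endpoint recorded as highest concentration tested. GI50 marks 50% less growth. TGI: concentration producing complete growth inhibition.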

Among the test systems are ACHN renal; COLO 205 colon; SN12C renal; NCI-H522 lung; SNB-75 CNS; UACC-257 melanoma; NCI-H23 lung; 786-0 renal; RPMI-8226 leukemia; RXF 393 renal.
Holding throughout (assay): NCI anticancer screen, dose series, 48 h

As for `CCOC(=O)/C=C1\Nc2ccccc2C(c2ccccc2)=NC1OC(C)=O` (stereo unspecified), the TGI in the assay with ACHN renal, in the assay on COLO 205 colon, in the assay on SN12C renal, in the assay with NCI-H522 lung, in the assay with SNB-75 CNS and in the assay on UACC-257 melanoma was more than 100 µM in each case. Further, the TGI in the assay with NCI-H23 lung, in the assay with 786-0 renal and in the assay with RPMI-8226 leukemia was more than 100 µM in each case.

For the molecule `O=C(/C=C/N1CCN(c2cccc(C(F)(F)F)c2)CC1)c1ccc(Cl)cc1Cl`, the GI50 with RXF 393 renal is 30.9 µM; with ACHN renal it was 23.4 µM; in the assay with COLO 205 colon it was 36.2 µM; in the assay with SN12C renal, 21.3 µM; with NCI-H522 lung it was 36.1 µM; in the assay on UACC-257 melanoma, 26.5 µM. Further, the GI50 is 23.2 µM in the assay on NCI-H23 lung, 20.8 µM in the assay with 786-0 renal and 25.9 µM in the assay with RPMI-8226 leukemia. Moreover, the TGI is 73.4 µM with RXF 393 renal; 46.9 µM in the assay on ACHN renal; more than 100 µM in the assay on COLO 205 colon; 40.6 µM in the assay on SN12C renal; more than 100 µM in the assay with NCI-H522 lung; 61 µM with UACC-257 melanoma. Also, the TGI with NCI-H23 lung stood at 75.3 µM; in the assay on 786-0 renal it was 39.8 µM; with RPMI-8226 leukemia it was 70.8 µM.

Consider `O=C1c2c(O)cccc2C(C(=O)CCCCC(=O)C2c3cccc(O)c3C(=O)c3c(O)cccc32)c2cccc(O)c21`, for which the GI50 with ACHN renal was 2.04 µM; with COLO 205 colon, 1.02 µM; in the assay on SN12C renal, 3.31 µM; with NCI-H522 lung, 1.25 µM; with SNB-75 CNS it was 1.4 µM; in the assay on UACC-257 melanoma, 1.38 µM. Moreover, the GI50 is 1.25 µM in the assay on NCI-H23 lung, 4.83 µM with 786-0 renal and 1.04 µM in the assay on RPMI-8226 leukemia. Further, the TGI in the assay on ACHN renal is 1.95 µM and 6.17 µM; in the assay on COLO 205 colon, 3.36 µM and 2.21 µM; in the assay with SN12C renal, 3.89 µM and 9.64 µM; in the assay on NCI-H522 lung, 1.07 µM and 2.92 µM; in the assay on SNB-75 CNS, 3.44 µM and 3.32 µM; with UACC-257 melanoma, 1.34 µM and 2.96 µM. For the same molecule, the TGI with NCI-H23 lung is 1.56 µM and 2.59 µM; in the assay with 786-0 renal, 5.53 µM and 10.7 µM; in the assay with RPMI-8226 leukemia, 1.3 µM and 3.08 µM.

`O=c1c2ccccc2nc(-c2ccccc2)n1NCC1(O)OCC(O)C(O)C1O` (stereo unspecified): the TGI with ACHN renal, in the assay on COLO 205 colon, in the assay on SN12C renal, in the assay on NCI-H522 lung, in the assay on SNB-75 CNS and in the assay on UACC-257 melanoma was more than 100 µM in each case. For the same molecule, the TGI in the assay with NCI-H23 lung, with 786-0 renal and in the assay on RPMI-8226 leukemia was more than 100 µM throughout.

`CO[C@H]1C=C[C@]23c4cc5c(cc4CN(CC2O)[C@@H]3C1)OCO5` (stereo partly specified): the TGI is 6.73 µM with ACHN renal; 17.9 µM in the assay with COLO 205 colon; 29.4 µM in the assay on SN12C renal; 16 µM with NCI-H522 lung; 30.4 µM in the assay with SNB-75 CNS; 42.8 µM with UACC-257 melanoma. The TGI in the assay with NCI-H23 lung was 33 µM; in the assay on 786-0 renal it was 16.5 µM; with RPMI-8226 leukemia, more than 100 µM.

For `C/C(=N\NS(=O)(=O)c1ccc(C)cc1)c1ccc[n+]([O-])n1`, the TGI with ACHN renal, in the assay with SN12C renal, with NCI-H522 lung, in the assay with SNB-75 CNS, in the assay with UACC-257 melanoma and with NCI-H23 lung was more than 100 µM each time. Moreover, the TGI with 786-0 renal and with RPMI-8226 leukemia was more than 100 µM in each case.

On to `O=C1CCC2(CCC(=O)NC2=O)C(=O)N1`, for which the TGI in the assay with RXF 393 renal, with ACHN renal, with COLO 205 colon, in the assay with SN12C renal, in the assay with NCI-H522 lung and with UACC-257 melanoma was more than 100 µM each time. Also, the TGI with NCI-H23 lung, in the assay with 786-0 renal and in the assay on RPMI-8226 leukemia was more than 100 µM throughout.

`Cc1ccc(NC(=O)CCC(=O)C2CC(=O)CC/C2=N\NC(=O)c2cc3ccccc3cc2O)cc1C` (stereo unspecified): the TGI in the assay on ACHN renal is more than 100 µM; in the assay on COLO 205 colon, 33.3 µM; with SN12C renal, more than 100 µM; in the assay on NCI-H522 lung, 39.5 µM; in the assay on SNB-75 CNS, more than 100 µM; in the assay on UACC-257 melanoma, 61.7 µM. Moreover, the values for the TGI in the assay with NCI-H23 lung, in the assay on 786-0 renal and in the assay on RPMI-8226 leukemia were 38 µM, more than 100 µM and more than 100 µM, respectively.

For `CCCCCCCCCCCCCCCC[N+]1(CC)CCCC1`, the GI50 in the assay on ACHN renal is 1.33 µM; with COLO 205 colon, 0.291 µM; in the assay on SN12C renal, 1.1 µM; in the assay with SNB-75 CNS, 0.247 µM; with UACC-257 melanoma it was 1.58 µM; in the assay with 786-0 renal, 1.18 µM. The TGI in the assay on ACHN renal stood at 4.43 µM; in the assay with COLO 205 colon, 0.731 µM; in the assay on SN12C renal, 2.44 µM; with SNB-75 CNS it was 1.11 µM; in the assay on UACC-257 melanoma, 3.76 µM; with 786-0 renal it was 2.61 µM.

On to `CCN(CC)CCOc1ccc(/C=C2\C[C@H]3[C@@H]4CC=C5C[C@@H](OC(C)=O)CC[C@]5(C)[C@H]4CC[C@]3(C)[C@H]2OC(C)=O)cc1OC`, for which the GI50 in the assay on RXF 393 renal is 8.96 µM; in the assay with ACHN renal it was 9.19 µM; with COLO 205 colon, 19.6 µM; in the assay with SN12C renal it was 9.06 µM; with NCI-H522 lung, 17.4 µM; in the assay with UACC-257 melanoma, 10.6 µM. Moreover, the figures for the GI50 with NCI-H23 lung, in the assay on 786-0 renal and with RPMI-8226 leukemia were 7.96 µM, 9.66 µM and 1.4 µM, respectively. Further, the TGI was 20.7 µM in the assay with RXF 393 renal; 19.2 µM in the assay on ACHN renal; more than 50 µM in the assay on COLO 205 colon; 21.3 µM with SN12C renal; more than 50 µM in the assay with NCI-H522 lung; 20 µM in the assay on UACC-257 melanoma. For the same molecule, the results for the TGI in the assay on NCI-H23 lung, with 786-0 renal and in the assay on RPMI-8226 leukemia were 16.1 µM, 18.7 µM and 24.2 µM, respectively.

Regarding `CC[C@@]1(OC(=O)CN)C(=O)OCc2c1cc1n(c2=O)Cc2cc3cc(N)ccc3nc2-1`, the GI50 in the assay on RXF 393 renal was 0.044 µM; in the assay with ACHN renal, less than 0.01 µM; in the assay with COLO 205 colon, 0.287 µM; with SN12C renal, less than 0.01 µM; in the assay on NCI-H522 lung, 0.0139 µM; in the assay on SNB-75 CNS it was less than 0.017 µM. Moreover, the GI50 in the assay on UACC-257 melanoma was 0.0887 µM; in the assay with NCI-H23 lung it was less than 0.01 µM; with 786-0 renal, less than 0.01 µM. Besides, the TGI was 0.371 µM with RXF 393 renal; 0.151 µM in the assay on ACHN renal; 2.22 µM in the assay with COLO 205 colon; more than 100 µM in the assay on SN12C renal; 0.34 µM with NCI-H522 lung; 1.66 µM with UACC-257 melanoma. In addition, the TGI with NCI-H23 lung was 0.0246 µM; in the assay with 786-0 renal, 0.0409 µM.
